We go through nine compounds from US4562206A, “Orally effective inotropic compounds” (Key Pharmaceuticals, Inc., priority 1984, dated 1985).

Entries after “also recorded” stand apart in the source; their conditions may differ. Where a name gives a salt, the structure may show the parent alone.

One data set concerns diastolic blood pressure. The data set is described as follows: Arterial blood pressure change, intravenous infusion, anesthetized open-chest dogs. The format is in vivo. The note with it: for Blood Pressure, Mean ± S.E. (change in diastolic blood pressure): dose 4 times larger than CC50, i.v.; for effect on blood pressure: i.v. The source says: To illustrate the structural specificity of the compounds of the invention, four close structural analogs of Compound I were synthesized and their activity compared to that of Compound I. In these tests dobutamine was used as a standard so that Compound I and the four structural analogs could be compared on a common basis. FIGS. 1 and 2 graphically compares dobutamine, Compound I and Compound V (the closest structural analog of dobutamine and Compound I).
(§1) The data in FIGS. 1 and 2 and Table 2 were obtained on dogs anesthetized with sodium pentobarbital (30 mg/kg, i.v.). The animals were placed on artificial respiration and the chest was opened to expose the heart. A Walton-Brodie strain gauge arch was sutured to the right ventricle for measurement of cardiac contractility. Arterial blood pressure was measured from a catheter placed in the abdominal aorta. Cardiac contractility and arterial pressure were recorded continuously on a Grass polygraph. All drugs were dissolved and infused intravenously in 0.9% NaCl solution.
Blood Pressure = change in diastolic blood pressure caused by a dose 4
times larger than CC50 -

The next data set relates to left ventricular dP/dt. The data set is described as follows: Inotropic response (left ventricular dP/dt) after buccal administration, anesthetized dogs. The class given is in vivo. The source says:
The dogs were anesthetized with sodium pentobarbital as described above and a Millar® transducer-tip catheter positioned in the left ventircle after introduction through the left carotid artery. Left ventricular pressure was obtained from this catheter and electronically differentiated to obtain dP/dt.
The dogs were placed on their backs, and their heads and noses positioned so that their hard palates were level. After an appropriate period to collect control dP/dt values, the test drug was applied to the hard palate. The test drugs were made up in a solution of 50% ethanol in distilled water adjusting concentrations so that the desired dose was contained in 2.5 ml of solution. The drug solution was applied to a 100 mm^2 area of the hard palate contained by fitting parafilm over the drug solution lying on the palate.

Data set [1] can be described thus: Blood (plasma) levels during intravenous infusion in anesthetized dog, HPLC with electrochemical detection. The class given is in vivo. The note with it: i.v. infusion 20 ug/kg/min; for concentration at 10 min / concentration at 20 min / concentration at 0.5 h: plasma, iv; for concentration at 10 min: infusion time 10 mins; for concentration at 20 min: infusion time 20 mins; for concentration at 0.5 h: infusion time 30 mins. The protocol: The data in Table 1 were obtained from a dog anesthetized with sodium pentobarbital (30 mg/kg, i.v.). The right femoral vein was cannulated for administration of drug and the left femoral vein was used for withdrawal of blood samples. All blood samples were collected in heparinized chilled tubes. The blood was centrifuged to separate red cells and the plasma was frozen.
After obtaining a control blood sample, dobutamine infusion at the rate of 20 ug/kg/min was maintained for 30 mins. During the infusion, blood samples were drawn at 10, 20, and 30 mins. One hour after completion of the dobutamine infusion, a second control sample of blood was drawn and an infusion of Compound I at 20 ug/kg/min was begun. Samples of blood were taken during the Compound I infusion at 10, 20, and 30 mins.
The concentrations of Compound I and dobutamine in plasma were measured using HPLC with electrochemical detection. Chromatography was performed using a reverse-phase octadecylsilane (C18) column attached to an amperometric detector equipped with a glassy carbon electrode at a potential of +600 mV. The mobile phase consisted of acetonitrile:pH 3 buffer (15:85); the buffer (pH 3) contained 0.035M KH2 PO4, 0.003M citric acid and 0.002M Na2 EDTA. At a flow rate of 1.5 ml/min, Compound I, dobutamine and the internal standard for the assay (dioxymethylene derivative of dobutamine) eluted in […] respectively.
In the assay procedure, control plasma (1 mil) spiked with 0, 20, 100, 300 and 500 ng/ml test drug was added to silanized glass tubes (13×128 mm) containing 100 ng of the internal standard as a solution in 100 ul of 5M K2 HPO4. The samples were mixed and extracted twice with 4 ml of ethyl acetate. Following centrifugation, the combined organic extracts were evaporated, the residue dissolved in […] of mobile phase and a 10-15 ul aliquot injected into the chromatograph. Calibration curves were constructed by plotting the peak height ratios of test drug to the internal standard over the concentration range and interpolation of unknown plasma concentrations from the fitted line.

The subject of data set [2] is cardiac contractility. The data set is described as follows: Cardiac contractility (inotropic effect), intravenous infusion, anesthetized open-chest dogs, strain gauge arch on right ventricle. The note with it: for Inotropic Potency Relative to Dobutamine, Mean ± S.E.: i.v. infusion, based on CC50 (rate that increases contractility by 50%). The format is in vivo. The protocol: as §1

Data set [3] relates to cardiac contractility. The data set is described as follows: Intravenous infusion rates required to increase cardiac contractility by 50%, anesthetized dogs. The format is in vivo.
Data set [4] relates to cardiac contractility. The data set is described as follows: Inotropic response (LV dP/dt) when swallowed, conscious instrumented dogs. The format is in vivo. The note with it: 5 mg/kg oral capsule. The protocol: To test the effectiveness of Compound I when swallowed, five previously trained dogs, instrumented with a miniature pressure transducer for measurement of cardiac contractility were used. On different days the conscious dogs were tested with placebo, dobutamine (5 mg/kg) or Compound I (5 mg/kg).
Several months prior to doing the procedure described above, a minature pressure transducer was mounted in the left ventricle of each dog's heart. The dogs were trained to swallow capsules and lie quietly for up to 3 hours. During this time, continuous recording of left ventricular pressure was made on a Grass polygraph. Also recorded was an electronically differentiated signal on the left ventricular pressure. This differential is referred to as LV dP/dt. This LV dP/dt is the rate that the left ventricle develops pressure and is accepted as an index of cardiac contractility.
On each day of testing the dogs were forced to swallow a gelatin capsule that was either empty (placebo), or contained dobutamine (5 mg/kg) or Compound I (5 mg/kg). Recordings were then made of cardiac contractility for 2 hours after the dog swallowed the capsule.

Data set [5] is described as follows: Buccal absorption of ester relative to parent (buccal versus intravenous potency comparison). To be noted: buccal versus i.v. potency, Compound I-A vs Compound I. The format is in vivo, dogs. The source says: Yet by the buccal route of administration, the ester was more than twice as potent as its parent. Therefore, the ester derivative was better absorbed through the buccal mucosa by a factor of more than eighteen times than was the parent compound.

For data set [6] the following is noted: background; cited from earlier work.
The test system of data set [7] is cardiac beta1 adrenergic receptors. The note with it: background, Tuttle and Mills, Circ. Res. 36: 185, 1975; cited from earlier work.

`CC(CCc1cccc(C(N)=O)c1)NCCc1ccc(O)c(O)c1` (stereo not shown) [Compound I, N-[2-(3,4-dihydroxyphenyl)ethyl]-1-methyl-3-(3-carbamoylphenyl)propylaminehydrochloride]: in the data set on diastolic blood pressure, the “Blood Pressure, Mean ± S.E. (change in diastolic blood pressure)” value was 5.3 ± 4.5 and the “effect on blood pressure” value is recorded as “no significant change in blood pressure; also recorded: no greater than that of dobutamine”. Besides, the “Inotropic Response, Percent Change from Control, Mean ± S.E. (peak change in left ventricular dP/dt)” value (from here on “Inotropic Response, Percent Change”) in the data set with left ventricular dP/dt (2 mg/kg) was found to be 16.6 ± 6%. In addition, in data set [1], the “Blood levels compared with dobutamine” value was “higher blood levels than dobutamine”, the concentration at 10 min is 417 ng/mL, the concentration at 20 min stood at 451 ng/mL and the concentration at 0.5 h was 874 ng/mL. For the same compound, in the data set with cardiac contractility [2] (i.v.), the “dose relative to that of dobutamine required for equivalent inotropic effect” value is “about a tenth” and the “times more potent than dobutamine” value is “about ten”. For the same compound, in the data set with cardiac contractility [2], the “Inotropic Potency Relative to Dobutamine, Mean ± S.E.” value was determined as 9.1 ± 2.4. In addition, in the data set on cardiac contractility [3] (Dog #1, i.v.), the “Intravenous infusion rate required to increase cardiac contractility by 50%” value turned out to be 0.29 µg/kg/min. Besides, the “Intravenous infusion rate required to increase cardiac contractility by 50%” value in the data set with cardiac contractility [3] (Dog #2, i.v.) amounted to 0.097 µg/kg/min. Moreover, in the data set on cardiac contractility [4], the “inotropic response when swallowed” value is “strong inotropic response; also recorded: effective when swallowed” and the “persistence of inotropic response when swallowed” value is on record as “more than two”.
For the compound `CC(CCc1cccc(C(N)=O)c1)NCCc1ccc(OC(=O)C(C)C)c(OC(=O)C(C)C)c1` (stereo not shown) [Compound I-A, N[2-(3,4-diisobutyryloxyphenyl)ethyl]-1-methyl-3-(3-carbamoylphenyl)propylamine hydrochloride], in data set [5], the “factor of better absorption through the buccal mucosa than parent compound” value was “more than eighteen”. In addition, the “Inotropic Response, Percent Change” value in the data set with left ventricular dP/dt (1.39 mg/kg) is reported as 61 ± 3%. Moreover, in the data set with left ventricular dP/dt (anesthetized dogs), the “inotropic response, buccal” value is on record as “the most effective by this route”. Further, the “buccal potency relative to Compound I” value in the data set on left ventricular dP/dt (molar basis, anesthetized dogs) is given as “more than twice”. In the data set with cardiac contractility [3] (Dog #1, i.v.), the “Dose Ratio (Compound I-A to Compound I)” value is 9.6 and the “Intravenous infusion rate required to increase cardiac contractility by 50%” value worked out at 2.8 µg/kg/min. In the data set on cardiac contractility [3] (Dog #2, i.v.), the “Dose Ratio (Compound I-A to Compound I)” value amounted to 12.9 and the “Intravenous infusion rate required to increase cardiac contractility by 50%” value was found to be 1.25 µg/kg/min. In addition, the “times less potent than parent catechol (Compound I)” value in the data set with cardiac contractility [3] (intravenous infusion) is reported as “more than nine”.
`CC(CCc1cccc(C(N)=O)c1)NCCc1ccc(OC(=O)C(C)(C)C)c(OC(=O)C(C)(C)C)c1` (stereo not shown) [Compound I-B]: the “Inotropic Response, Percent Change” value in the data set on left ventricular dP/dt (1.39 mg/kg) amounted to 13 ± 7%. Also, the “inotropic response, buccal” value with left ventricular dP/dt (anesthetized dogs) is on record as “small response”.
For the compound `NC(=O)c1cccc(CCCNCCc2ccc(O)c(O)c2)c1` [Compound III], in the data set with diastolic blood pressure, the “Blood Pressure, Mean ± S.E. (change in diastolic blood pressure)” value turned out to be 22.3 ± 16.2 and the “effect on blood pressure” value is given as “undesired elevation in blood pressure”. Besides, the “inotropic potency” value with cardiac contractility [2] (i.v.) was “potency was reduced”. Also, the “Inotropic Potency Relative to Dobutamine, Mean ± S.E.” value in the data set on cardiac contractility [2] was found to be 1.4 ± 1.
For `NC(=O)c1cccc(CCNCCc2ccc(O)c(O)c2)c1` [Compound II], in the data set with diastolic blood pressure, the “Blood Pressure, Mean ± S.E. (change in diastolic blood pressure)” value is -8 ± 5 and the “effect on blood pressure” value was “no rise in blood pressure”. Moreover, in the data set with cardiac contractility [2] (i.v.), the “inotropic potency” value was “not significantly better than that of dobutamine”. For the same compound, the “Inotropic Potency Relative to Dobutamine, Mean ± S.E.” value with cardiac contractility [2] amounted to 1.5 ± 0.1.
`NC(=O)c1ccc(CCNCCc2ccc(O)c(O)c2)cc1` [Compound IV]: in the data set on diastolic blood pressure, the “Blood Pressure, Mean ± S.E. (change in diastolic blood pressure)” value was 26 ± 10 and the “effect on blood pressure” value is given as “the blood pressure side effect reappears”. Moreover, in the data set on cardiac contractility [2], the “Inotropic Potency Relative to Dobutamine, Mean ± S.E.” value amounted to 1.38 ± 0.2.
For `CC(CCc1ccc(C(N)=O)cc1)NCCc1ccc(OC(=O)C(C)C)c(OC(=O)C(C)C)c1` (stereo not shown) [Compound V-A], in the data set on left ventricular dP/dt (1.39 mg/kg), the “Inotropic Response, Percent Change” value is given as “No response”. In addition, the “inotropic response, buccal” value in the data set on left ventricular dP/dt (anesthetized dogs) was “no response”.
Consider `CC(CCc1ccc(C(N)=O)cc1)NCCc1ccc(O)c(O)c1` (stereo not shown) [Compound V], for which the “effect on blood pressure” value in the data set with diastolic blood pressure is “dangerous rise in blood pressure”. For the same compound, in the data set on cardiac contractility [2] (i.v.), the “cardiac potency relative to that with carbamyl group in meta position (Compound I)” value is “less than a third”. The “Inotropic Potency Relative to Dobutamine, Mean ± S.E.” value with cardiac contractility [2] turned out to be 2.9 ± 0.3.
Consider `CC(CCc1ccc(O)cc1)NCCc1ccc(O)c(O)c1` (stereo not shown) [Dobutamine, reference compound], for which, in the data set with diastolic blood pressure, the “Blood Pressure, Mean ± S.E. (change in diastolic blood pressure)” value was found to be 7.8 ± 4.5. Further, the “clearance from the blood” value in data set [6] is “rapidly cleared from the blood”. Further, the “Inotropic Response, Percent Change” value with left ventricular dP/dt (5 mg/kg) came out at 2.7 ± 2%. Further, in [1], the concentration at 10 min amounted to 155 ng/mL, the concentration at 20 min is 176 ng/mL and the concentration at 0.5 h is 158 ng/mL. In addition, in data set [7], the “cardioselectivity” value is “cardioselective in its actions”. Moreover, the “inotropic response when swallowed” value in the data set on cardiac contractility [4] is recorded as “did not produce a response significantly better than the placebo”.
